Source: PubChem BioAssay (NCI)
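Protocol summary: plate cells (96-well), add compound at 5 concentrations, incubate 48 h, interpolate endpoints linearly. The concentration for 50% growth inhibition is given as GI50. Definition used: TGI = concentration required for complete inhibition of growth.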

Columns and labels:
Assay in all cases: DTP human tumour cell line panel, 48 h; in the data active = GI50 below about 0.43 µM; inactive = the rest
SK-MEL-2 melanoma = system: SK-MEL-2 melanoma
T-47D breast = system: T-47D breast
RXF 393 renal = system: RXF 393 renal
HL-60(TB) leukemia = system: HL-60(TB) leukemia
COLO 205 colon = system: COLO 205 colon
RPMI-8226 leukemia = system: RPMI-8226 leukemia
SF-539 CNS = system: SF-539 CNS
HOP-62 NSCLC = system: HOP-62 NSCLC
BT-549 breast = system: BT-549 breast
MALME-3M melanoma = system: MALME-3M melanoma
DU-145 prostate = system: DU-145 prostate
LOX IMVI melanoma = system: LOX IMVI melanoma
NCI/ADR-RES ovarian = system: NCI/ADR-RES ovarian
UO-31 renal = system: UO-31 renal
HCT-116 colon = system: HCT-116 colon
SNB-19 CNS = system: SNB-19 CNS
MDA-MB-435 = system: MDA-MB-435
SW-620 colon = system: SW-620 colon
SR leukemia = system: SR leukemia
PC-3 prostate = system: PC-3 prostate
OVCAR-3 ovarian = system: OVCAR-3 ovarian
MCF7 breast = system: MCF7 breast
A498 renal = system: A498 renal
HOP-92 NSCLC = system: HOP-92 NSCLC
SNB-75 CNS = system: SNB-75 CNS
HCC-2998 colon = system: HCC-2998 colon
SK-OV-3 ovarian = system: SK-OV-3 ovarian
786-0 renal = system: 786-0 renal
EKVX NSCLC = system: EKVX NSCLC
M14 melanoma = system: M14 melanoma
U251 CNS = system: U251 CNS
UACC-62 melanoma = system: UACC-62 melanoma
SF-268 CNS = system: SF-268 CNS
SK-MEL-28 melanoma = system: SK-MEL-28 melanoma
SK-MEL-5 melanoma = system: SK-MEL-5 melanoma
UACC-257 melanoma = system: UACC-257 melanoma
MOLT-4 leukemia = system: MOLT-4 leukemia
NCI-H226 lung = system: NCI-H226 lung
TK-10 renal = system: TK-10 renal
MDA-MB-231 breast = system: MDA-MB-231 breast
K-562 leukemia = system: K-562 leukemia
OVCAR-4 ovarian = system: OVCAR-4 ovarian
SN12C renal = system: SN12C renal
CAKI-1 renal = system: CAKI-1 renal
HT29 colon = system: HT29 colon
HS 578T breast = system: HS 578T breast
A549 NSCLC = system: A549 NSCLC
OVCAR-8 ovarian = system: OVCAR-8 ovarian
IGROV1 ovarian = system: IGROV1 ovarian
NCI-H522 lung = system: NCI-H522 lung
SF-295 CNS = system: SF-295 CNS
NCI-H460 lung = system: NCI-H460 lung
NCI-H23 lung = system: NCI-H23 lung
CCRF-CEM leukemia = system: CCRF-CEM leukemia
HCT-15 colon = system: HCT-15 colon
KM12 colon = system: KM12 colon
OVCAR-5 ovarian = system: OVCAR-5 ovarian
ACHN renal = system: ACHN renal
MDA-N = system: MDA-N

CSc1nc2c(c(=O)n1C)CN(C1CCCCC1)C(=O)C(c1ccccc1)N2 (centres undefined)
83.3 µM: TGI (SK-MEL-28 melanoma)
37.6 µM: TGI (A498 renal)
inactive: GI50 (SK-MEL-2 melanoma) 26.2 µM | GI50 (T-47D breast) 29.3 µM | GI50 (RXF 393 renal) 49.5 µM | GI50 (HL-60(TB) leukemia) 17.5 µM | GI50 (COLO 205 colon) 30.9 µM | GI50 (RPMI-8226 leukemia) 11.3 µM | GI50 (SF-539 CNS) 51.7 µM | GI50 (HOP-62 NSCLC) > 100 µM | GI50 (BT-549 breast) 13.2 µM | GI50 (MALME-3M melanoma) 10.9 µM | GI50 (DU-145 prostate) 64.4 µM | GI50 (LOX IMVI melanoma) 17.1 µM | GI50 (NCI/ADR-RES ovarian) 38.9 µM | GI50 (UO-31 renal) 34.1 µM | GI50 (HCT-116 colon) 36.6 µM | GI50 (SNB-19 CNS) 36.7 µM | GI50 (MDA-MB-435) 19.1 µM | GI50 (SW-620 colon) 38.5 µM | GI50 (SR leukemia) 6.38 µM | GI50 (PC-3 prostate) 21.7 µM | GI50 (OVCAR-3 ovarian) 20.1 µM | GI50 (MCF7 breast) 19.3 µM | GI50 (HOP-92 NSCLC) 14.3 µM | GI50 (SNB-75 CNS) 95.8 µM | GI50 (HCC-2998 colon) 35.9 µM | GI50 (SK-OV-3 ovarian) 76.8 µM | GI50 (786-0 renal) 68.3 µM | GI50 (EKVX NSCLC) 38.8 µM | GI50 (M14 melanoma) 43.5 µM | GI50 (U251 CNS) 41.4 µM | GI50 (UACC-62 melanoma) 8.01 µM | GI50 (SF-268 CNS) 25.3 µM | GI50 (SK-MEL-28 melanoma) 17.1 µM | GI50 (SK-MEL-5 melanoma) 10.4 µM | GI50 (UACC-257 melanoma) 38.2 µM | GI50 (MOLT-4 leukemia) 12.2 µM | GI50 (NCI-H226 lung) 77.3 µM | GI50 (TK-10 renal) 31.4 µM | GI50 (MDA-MB-231 breast) 27.4 µM | GI50 (K-562 leukemia) 4 µM | GI50 (OVCAR-4 ovarian) 35.2 µM | GI50 (SN12C renal) 36 µM | GI50 (CAKI-1 renal) 26.9 µM | GI50 (HT29 colon) 33.3 µM | GI50 (HS 578T breast) 15.9 µM | GI50 (A549 NSCLC) 38.4 µM | GI50 (OVCAR-8 ovarian) 46.9 µM | GI50 (IGROV1 ovarian) 34.6 µM | GI50 (NCI-H522 lung) 11.9 µM | GI50 (SF-295 CNS) 35.3 µM | GI50 (NCI-H460 lung) 37.2 µM | GI50 (NCI-H23 lung) 51.2 µM | GI50 (CCRF-CEM leukemia) 11.3 µM | GI50 (HCT-15 colon) 16.1 µM | GI50 (KM12 colon) 27.6 µM | GI50 (OVCAR-5 ovarian) > 100 µM | GI50 (ACHN renal) 12.1 µM
80.7 µM: TGI (HS 578T breast)
57.8 µM: TGI (UACC-62 melanoma)
active: GI50 (A498 renal) 0.292 µM
91.4 µM: TGI (HOP-92 NSCLC)
43.5 µM: TGI (MALME-3M melanoma)
66 µM: TGI (MCF7 breast)
82 µM: TGI (OVCAR-3 ovarian)
39 µM: TGI (MOLT-4 leukemia)
67.5 µM: TGI (HL-60(TB) leukemia)
25.7 µM: TGI (SK-MEL-5 melanoma)
49.4 µM: TGI (BT-549 breast)
> 100 µM: TGI (SK-MEL-2 melanoma) | TGI (T-47D breast) | TGI (RXF 393 renal) | TGI (COLO 205 colon) | TGI (RPMI-8226 leukemia) | TGI (SF-539 CNS) | TGI (HOP-62 NSCLC) | TGI (DU-145 prostate) | TGI (LOX IMVI melanoma) | TGI (NCI/ADR-RES ovarian) | TGI (UO-31 renal) | TGI (HCT-116 colon) | TGI (SNB-19 CNS) | TGI (MDA-MB-435) | TGI (SW-620 colon) | TGI (SR leukemia) | TGI (PC-3 prostate) | TGI (SNB-75 CNS) | TGI (HCC-2998 colon) | TGI (SK-OV-3 ovarian) | TGI (786-0 renal) | TGI (EKVX NSCLC) | TGI (M14 melanoma) | TGI (U251 CNS) | TGI (SF-268 CNS) | TGI (UACC-257 melanoma) | TGI (NCI-H226 lung) | TGI (TK-10 renal) | TGI (MDA-MB-231 breast) | TGI (K-562 leukemia) | TGI (OVCAR-4 ovarian) | TGI (SN12C renal) | TGI (CAKI-1 renal) | TGI (HT29 colon) | TGI (A549 NSCLC) | TGI (OVCAR-8 ovarian) | TGI (IGROV1 ovarian) | TGI (NCI-H522 lung) | TGI (SF-295 CNS) | TGI (NCI-H460 lung) | TGI (NCI-H23 lung) | TGI (CCRF-CEM leukemia) | TGI (HCT-15 colon) | TGI (KM12 colon) | TGI (OVCAR-5 ovarian) | TGI (ACHN renal)

CCOC(=O)C(C#N)C1=CC(=O)C(=O)c2ccc(O)cc21 (centres undefined)
51.3 µM: TGI (M14 melanoma)
> 100 µM: TGI (SK-MEL-2 melanoma) | TGI (T-47D breast) | TGI (RXF 393 renal) | TGI (HL-60(TB) leukemia) | TGI (COLO 205 colon) | TGI (RPMI-8226 leukemia) | TGI (SF-539 CNS) | TGI (HOP-62 NSCLC) | TGI (MALME-3M melanoma) | TGI (DU-145 prostate) | TGI (LOX IMVI melanoma) | TGI (NCI/ADR-RES ovarian) | TGI (UO-31 renal) | TGI (HCT-116 colon) | TGI (SNB-19 CNS) | TGI (SW-620 colon) | TGI (SR leukemia) | TGI (PC-3 prostate) | TGI (OVCAR-3 ovarian) | TGI (MCF7 breast) | TGI (A498 renal) | TGI (SNB-75 CNS) | TGI (HCC-2998 colon) | TGI (SK-OV-3 ovarian) | TGI (786-0 renal) | TGI (EKVX NSCLC) | TGI (U251 CNS) | TGI (SF-268 CNS) | TGI (SK-MEL-28 melanoma) | TGI (SK-MEL-5 melanoma) | TGI (UACC-257 melanoma) | TGI (MOLT-4 leukemia) | TGI (NCI-H226 lung) | TGI (TK-10 renal) | TGI (MDA-MB-231 breast) | TGI (K-562 leukemia) | TGI (OVCAR-4 ovarian) | TGI (SN12C renal) | TGI (CAKI-1 renal) | TGI (HT29 colon) | TGI (HS 578T breast) | TGI (A549 NSCLC) | TGI (OVCAR-8 ovarian) | TGI (IGROV1 ovarian) | TGI (NCI-H522 lung) | TGI (SF-295 CNS) | TGI (NCI-H460 lung) | TGI (CCRF-CEM leukemia) | TGI (HCT-15 colon) | TGI (KM12 colon) | TGI (OVCAR-5 ovarian) | TGI (ACHN renal)
39.9 µM: TGI (MDA-MB-435)
36.9 µM: TGI (UACC-62 melanoma)
58 µM: TGI (NCI-H23 lung)
32.7 µM: TGI (MDA-N)

[B-][P+](CC[P+]1([B-])[C@@H](C)[C@@H](O)[C@H](O)[C@@H]1C)(c1ccccc1)c1ccccc1OC (some centres undefined)
29.6 µM: TGI (MDA-N)
41.7 µM: TGI (MOLT-4 leukemia)
70.8 µM: TGI (K-562 leukemia)
29.4 µM: TGI (SF-295 CNS)
31.6 µM: TGI (SF-539 CNS) | TGI (ACHN renal)
32.6 µM: TGI (COLO 205 colon)
31.7 µM: TGI (OVCAR-4 ovarian)
30.2 µM: TGI (SK-MEL-2 melanoma)
21.7 µM: TGI (UO-31 renal)
33.7 µM: TGI (DU-145 prostate)
24.4 µM: TGI (MALME-3M melanoma)
33.1 µM: TGI (KM12 colon)
55.4 µM: TGI (RPMI-8226 leukemia)
37.6 µM: TGI (SK-OV-3 ovarian)
28.1 µM: TGI (UACC-62 melanoma)
25 µM: TGI (EKVX NSCLC)
32.7 µM: TGI (SK-MEL-28 melanoma)
22.6 µM: TGI (HS 578T breast)
31 µM: TGI (OVCAR-3 ovarian)
46.4 µM: TGI (CCRF-CEM leukemia)
35.6 µM: TGI (PC-3 prostate) | TGI (MCF7 breast)
28.3 µM: TGI (SNB-75 CNS)
32.5 µM: TGI (TK-10 renal)
20.3 µM: TGI (UACC-257 melanoma)
60.8 µM: TGI (786-0 renal)
30.6 µM: TGI (U251 CNS)
35.9 µM: TGI (NCI/ADR-RES ovarian)
26.2 µM: TGI (SN12C renal) | TGI (NCI-H522 lung)
40.6 µM: TGI (HT29 colon)
8.51 µM: TGI (LOX IMVI melanoma)
34 µM: TGI (M14 melanoma)
30.9 µM: TGI (SNB-19 CNS)
31.2 µM: TGI (RXF 393 renal)
33 µM: TGI (HOP-92 NSCLC)
31.9 µM: TGI (SW-620 colon)
31.8 µM: TGI (NCI-H226 lung)
33.3 µM: TGI (HCT-15 colon)
29.5 µM: TGI (MDA-MB-231 breast)
37.3 µM: TGI (T-47D breast)
29.3 µM: TGI (SK-MEL-5 melanoma)
32 µM: TGI (A498 renal) | TGI (NCI-H460 lung) | TGI (OVCAR-5 ovarian)
35.3 µM: TGI (HCT-116 colon)
33.6 µM: TGI (HOP-62 NSCLC)
31.3 µM: TGI (IGROV1 ovarian) | TGI (NCI-H23 lung)
28.8 µM: TGI (A549 NSCLC)
32.8 µM: TGI (SF-268 CNS)
30.4 µM: TGI (MDA-MB-435) | TGI (CAKI-1 renal)
54 µM: TGI (HL-60(TB) leukemia)
31.5 µM: TGI (OVCAR-8 ovarian)
